Here are results for 3 molecules from PMC9585082, “Structural insight into the ligand binding mechanism of aryl hydrocarbon receptor” (Nature Communications, 2022).

The structures appear in SMILES notation.

The target in one assay is T1, mAHR (Mus musculus, UniProt P30561).
T1 construct: gene Ahr; full-length
T1 sequence (P30561 10-848): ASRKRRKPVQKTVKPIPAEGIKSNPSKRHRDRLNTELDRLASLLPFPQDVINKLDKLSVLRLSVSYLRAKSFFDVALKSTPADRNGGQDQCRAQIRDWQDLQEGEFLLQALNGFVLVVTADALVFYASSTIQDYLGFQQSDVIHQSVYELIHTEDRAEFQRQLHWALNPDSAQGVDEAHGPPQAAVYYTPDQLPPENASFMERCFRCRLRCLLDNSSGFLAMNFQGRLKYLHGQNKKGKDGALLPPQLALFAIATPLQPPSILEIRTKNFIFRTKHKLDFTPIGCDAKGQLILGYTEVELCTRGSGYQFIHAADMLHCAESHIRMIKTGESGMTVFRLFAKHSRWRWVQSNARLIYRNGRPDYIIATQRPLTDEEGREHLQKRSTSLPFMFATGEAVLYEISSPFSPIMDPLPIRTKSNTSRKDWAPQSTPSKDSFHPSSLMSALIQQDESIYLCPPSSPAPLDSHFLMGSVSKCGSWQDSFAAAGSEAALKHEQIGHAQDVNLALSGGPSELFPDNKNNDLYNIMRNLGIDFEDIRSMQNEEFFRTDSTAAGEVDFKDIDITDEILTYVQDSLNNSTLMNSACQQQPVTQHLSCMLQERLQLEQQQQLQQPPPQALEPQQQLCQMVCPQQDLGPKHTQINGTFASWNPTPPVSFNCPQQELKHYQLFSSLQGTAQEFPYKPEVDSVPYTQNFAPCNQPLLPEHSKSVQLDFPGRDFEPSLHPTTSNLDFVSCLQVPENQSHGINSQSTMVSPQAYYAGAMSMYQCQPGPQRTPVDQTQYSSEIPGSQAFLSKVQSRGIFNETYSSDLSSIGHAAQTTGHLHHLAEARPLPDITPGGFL
As to the kind of experiment: DRE luciferase reporter assay in HEK293T expressing mAHR (agonist at […]). Type of assay: cell-based. The source says: FICZ, βNF and BaP were supplied
Background: A reporter such as luciferase makes a cellular process visible.

Another assay concerns the target T2, dAHR PAS-B (Drosophila melanogaster, UniProt O61543, M284C/Y336L).
T2 construct: gene ss; PAS-B domain (residues 264–381)
As to the kind of experiment: label-free MST. It is filed as binding.

T2 sequence (O61543 entry or part of it M284C/Y336L): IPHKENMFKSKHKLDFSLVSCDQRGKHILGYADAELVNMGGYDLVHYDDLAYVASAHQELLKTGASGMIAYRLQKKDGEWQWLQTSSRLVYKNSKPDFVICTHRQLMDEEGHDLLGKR

In the case of `O=c1cc(-c2ccccc2)oc2ccc3ccccc3c12` [βNF], the “DRE luciferase reporter assay in HEK293T expressing mAHR (agonist at 500 nM)” value at mAHR is “transactivation of mAHR in HEK293T cells in the presence or absence of agonists. FICZ, βNF and BaP were supplied”. In addition, the Kd (usually the constant that tells how readily two partners part at equilibrium) on dAHR PAS-B is around 0.4 µM.

On to `O=Cc1c2[nH]c3ccccc3c2cc2[nH]c3ccccc3c12` [FICZ], for which the “DRE luciferase reporter assay in HEK293T expressing mAHR (agonist at 200 nM)” value on mAHR was “transactivation of mAHR in HEK293T cells in the presence or absence of agonists. FICZ, βNF and BaP were supplied”. Further, on dAHR PAS-B, the dissociation constant Kd was around 0.8 µM.

With `c1ccc2c(c1)cc1ccc3cccc4ccc2c1c34` [BaP], the “DRE luciferase reporter assay in HEK293T expressing mAHR (agonist at 200 nM)” value on mAHR was “transactivation of mAHR in HEK293T cells in the presence or absence of agonists. FICZ, βNF and BaP were supplied”.
